Laboratory results reported in US20250051276A1 (priority 2021, published 2025).

Legend:
[1] = target: 5-HT2Cedited (accession number AAF35842.1) (Homo sapiens, UniProt P28335, I156V/I160V/N158S); assay: biochemical; format: binding
[2] = target: human recombinant 5-HT2Cedited receptor (Homo sapiens, UniProt P28335, I156V/I160V/N158S); assay: cell-based
Chain of human recombinant 5-HT2Cedited receptor (P28335 33-458 I156V/N158S/I160V limits assumed): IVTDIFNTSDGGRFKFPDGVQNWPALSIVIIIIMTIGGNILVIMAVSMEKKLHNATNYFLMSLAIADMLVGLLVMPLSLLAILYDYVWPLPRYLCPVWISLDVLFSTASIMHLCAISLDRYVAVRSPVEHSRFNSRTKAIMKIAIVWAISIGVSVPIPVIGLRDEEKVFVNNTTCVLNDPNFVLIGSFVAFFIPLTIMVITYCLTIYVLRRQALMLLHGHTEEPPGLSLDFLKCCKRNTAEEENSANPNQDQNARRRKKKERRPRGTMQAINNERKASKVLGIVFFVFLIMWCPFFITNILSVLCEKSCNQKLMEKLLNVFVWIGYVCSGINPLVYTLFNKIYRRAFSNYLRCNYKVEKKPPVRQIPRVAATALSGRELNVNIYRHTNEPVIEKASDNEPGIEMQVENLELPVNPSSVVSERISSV

Chain of 5-HT2Cedited (accession number AAF35842.1) (P28335 whole entry I156V/N158S/I160V, looked up): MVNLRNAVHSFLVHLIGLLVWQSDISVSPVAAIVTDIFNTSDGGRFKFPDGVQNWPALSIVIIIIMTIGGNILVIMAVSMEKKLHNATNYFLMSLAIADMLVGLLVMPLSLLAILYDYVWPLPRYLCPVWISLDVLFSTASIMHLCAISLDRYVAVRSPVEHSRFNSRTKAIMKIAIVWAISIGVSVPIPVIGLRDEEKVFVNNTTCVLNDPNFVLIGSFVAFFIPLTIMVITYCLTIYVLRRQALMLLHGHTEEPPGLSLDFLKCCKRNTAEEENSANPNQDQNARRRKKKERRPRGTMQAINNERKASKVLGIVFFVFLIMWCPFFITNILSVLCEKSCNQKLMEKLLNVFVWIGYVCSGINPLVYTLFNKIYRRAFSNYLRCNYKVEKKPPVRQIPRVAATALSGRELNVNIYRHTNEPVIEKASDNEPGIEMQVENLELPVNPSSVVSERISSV

SMILES | IC50 [1] [nM] | EC50 [2] [nM]
C[C@H](Cn1ccc2nc(OCc3ccccc3)ccc21)N(C)C [Compound 1, (R)-1-(5-(benzyloxy)-1H-pyrrolo[3,2-b]pyridin-1-yl)-N,N-dimethylpropan-2-amine] | 1000 to 10000 | > 10000
C[C@@H](N)Cn1ccc2nc(OCc3ccccc3)ccc21 [Compound 2, (R)-1-(5-(benzyloxy)-1H-pyrrolo[3,2-b]pyridin-1-yl)propan-2-amine] | > 10000 | > 10000
C[C@H](Cn1ccc2cc(OCc3ccccc3)ccc21)N(C)C [Compound 3, (R)-1-(5-(benzyloxy)-1H-indol-1-yl)-N,N-dimethylpropan-2-amine] | 101 to 1000 | 1000 to 10000
CN[C@H](C)Cn1ccc2cc(OCc3ccccc3)ccc21 [Compound 4, (R)-1-(5-(benzyloxy)-1H-indol-1-yl)-N-methylpropan-2-amine] | 1000 to 10000 | 1000 to 10000
C[C@@H](N)Cn1ccc2cc(OCc3ccc(F)cc3)ccc21 [Compound 5, (R)-1-(5-((4-fluorobenzyl)oxy)-1H-indol-1-yl)propan-2-amine] | 101 to 1000 | 1000 to 10000
C[C@@H](N)Cn1ccc2cc(OCc3cccc(F)c3)ccc21 [Compound 6, (R)-1-(5-((3-fluorobenzyl)oxy)-1H-indol-1-yl)propan-2-amine] | 101 to 1000 | 1000 to 10000
C[C@@H](N)Cn1ccc2cc(OCc3ccccc3F)ccc21 [Compound 7, (R)-1-(5-((2-fluorobenzyl)oxy)-1H-indol-1-yl)propan-2-amine] | 1000 to 10000 | 1000 to 10000
C[C@H](Cn1ccc2cc(OCc3ccc(F)cc3)ccc21)N(C)C [Compound 8, (R)-1-(5-((4-fluorobenzyl)oxy)-1H-indol-1-yl)-N,N-dimethylpropan-2-amine] | 101 to 1000 | > 10000
C[C@H](Cn1ccc2cc(OCc3cccc(F)c3)ccc21)N(C)C [Compound 9, (R)-1-(5-((3-fluorobenzyl)oxy)-1H-indol-1-yl)-N,N-dimethylpropan-2-amine] | 101 to 1000 | > 10000
C[C@H](Cn1ccc2cc(OCc3ccccc3F)ccc21)N(C)C [Compound 10, (R)-1-(5-((2-fluorobenzyl)oxy)-1H-indol-1-yl)-N,N-dimethylpropan-2-amine] | 101 to 1000 | > 10000
CCN(CC)[C@H](C)Cn1ccc2cc(OCc3ccccc3)ccc21 [Compound 11, (R)-1-(5-(benzyloxy)-1H-indol-1-yl)-N,N-diethylpropan-2-amine] | 1000 to 10000 | > 10000
C[C@H](Cn1ccc2cc(OCc3ccccc3)ccc21)N1CCCC1 [Compound 12, (R)-5-(benzyloxy)-1-(2-(pyrrolidin-1-yl)propyl)-1H-indole] | 1000 to 10000 | > 10000
